Test results: patent publication US20260000654A1, “USE OF BENCYCLOQUIDIUM BROMIDE, ISOMER THEREOF AND DERIVATIVE THEREOF IN PREPARATION OF OPHTHALMIC FORMULATION” (Beijing Yingu Medicine Sci Techno Co., Ltd., priority 2023, published 2026)
“Also recorded” adds a separate entry of the source.

System: animal model of form-deprivation myopia (FDM)
Test: form-deprivation myopia (FDM) model experiment on colorful guinea pigs
Details: for change value of ocular axial length: 0.05% eye drops once a day, after four weeks, compared with model control group; for body weight: during the experiment, among the groups
Description: An animal model of form-deprivation myopia (FDM) was prepared by using the monocular deprived (MD) method, i.e., covering one eye with an opaque eye patch to cause form-deprivation.
Models were established for each group of animals, and drugs were started on the first day of modeling. The model control group (FDM), positive control group (FDM+atropine), and bencycloquidium bromide group (FDM+the eye drops of bencycloquidium bromide) were given blank solvent, 0.05% atropine, and 0.05% eye drops of bencycloquidium bromide by instillation into the conjunctival sac, once a day, 20 L/eye, for a total of four weeks. Among them, the component of the blank solvent is water for injection; the components of 0.05% atropine using water for injection as solvent comprises 0.05% of atropine, 1.0% of polyvinyl alcohol, and 0.02% of benzalkonium chloride; and the osmotic pressure regulator is sodium chloride, and the osmolality of the eye drops is adjusted to 300 to 320 mOsmol/kg, and the pH regulator is phosphate buffer (NaH2PO4—Na2HPO4), which is used to adjust the pH value of the eye drops to 6.8.
The detection indicators were as follows: • (1) Animals are generally observed clinically once a day. • (2) Animal body weight is measured upon receipt, on the 7th and 14th days of quarantine, and twice a week after modeling. • (3) The anterior chamber depth, lens thickness, vitreous cavity depth and ocular axial length were checked before modeling and once a week after administration. • (4) The diopter was checked before modeling and once a week after administration.

SMILES | change value of ocular axial length (guinea pig FDM model) | body weight (guinea pig FDM model) | trend of diopter decline (guinea pig FDM model, 0.05% eye drops per day during four-week modeling period) | preventive effect on myopia (guinea pig FDM myopia model)
CN1[C@@H]2CC[C@H]1C[C@@H](OC(=O)C(CO)c1ccccc1)C2 (stereo partly drawn) [atropine] | significantly reduced | no significant difference in body weight |  | 
C[N+]12CCC(CC1)C(OCC(O)(c1ccccc1)C1CCCC1)C2 (stereo not drawn) [bencycloquidium bromide] | significantly reduced; also recorded: significantly inhibit | no significant difference in body weight | significantly inhibit the trend of diopter decline | significant preventive effect
